biological target: T1, purified human HDAC6 (Homo sapiens, UniProt Q9UBN7); assay: HDAC6 Enzyme Assay; format: biochemical
T1 construct: purchased BPS Bioscience 5006
T1 sequence (Q9UBN7 1-1215): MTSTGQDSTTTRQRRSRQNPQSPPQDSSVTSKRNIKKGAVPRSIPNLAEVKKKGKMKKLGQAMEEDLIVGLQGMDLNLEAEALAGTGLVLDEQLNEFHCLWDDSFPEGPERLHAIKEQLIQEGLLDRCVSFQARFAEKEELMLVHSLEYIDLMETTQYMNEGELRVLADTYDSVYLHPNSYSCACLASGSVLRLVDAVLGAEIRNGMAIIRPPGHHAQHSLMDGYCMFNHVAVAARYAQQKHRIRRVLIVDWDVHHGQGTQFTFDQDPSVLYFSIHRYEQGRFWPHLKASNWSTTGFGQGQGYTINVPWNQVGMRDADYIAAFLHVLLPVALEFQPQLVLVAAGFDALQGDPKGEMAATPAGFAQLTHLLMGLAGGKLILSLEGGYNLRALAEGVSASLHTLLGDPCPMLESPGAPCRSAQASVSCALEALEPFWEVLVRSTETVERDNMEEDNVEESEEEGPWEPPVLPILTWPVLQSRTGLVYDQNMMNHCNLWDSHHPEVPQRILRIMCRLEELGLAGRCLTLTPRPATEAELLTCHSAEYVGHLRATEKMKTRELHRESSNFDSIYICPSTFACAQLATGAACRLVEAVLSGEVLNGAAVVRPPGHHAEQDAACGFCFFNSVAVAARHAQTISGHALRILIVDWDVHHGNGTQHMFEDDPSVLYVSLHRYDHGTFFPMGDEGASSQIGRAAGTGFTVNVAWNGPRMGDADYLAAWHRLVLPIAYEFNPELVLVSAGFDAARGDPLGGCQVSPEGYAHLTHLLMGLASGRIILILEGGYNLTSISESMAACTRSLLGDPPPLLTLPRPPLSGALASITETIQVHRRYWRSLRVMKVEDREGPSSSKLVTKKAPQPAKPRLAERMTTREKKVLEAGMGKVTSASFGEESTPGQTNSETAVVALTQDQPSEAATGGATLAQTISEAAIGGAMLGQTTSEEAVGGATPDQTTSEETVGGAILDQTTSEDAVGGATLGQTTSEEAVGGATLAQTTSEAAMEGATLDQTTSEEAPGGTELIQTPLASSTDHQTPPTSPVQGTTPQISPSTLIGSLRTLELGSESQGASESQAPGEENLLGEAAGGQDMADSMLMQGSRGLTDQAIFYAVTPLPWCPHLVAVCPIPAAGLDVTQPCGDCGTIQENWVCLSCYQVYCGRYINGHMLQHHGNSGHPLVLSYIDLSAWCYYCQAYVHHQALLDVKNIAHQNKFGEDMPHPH
In short: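 Purified human HDAC6 incubated 1 h at 30 °C with Ac-Arg-Gly-Lys(Ac)-AMC peptide and compound; reaction stopped with trichostatin A, then trypsin releases AMC, read by fluorescence (Ex 340/Em 460 nm). IC50 from concentration-response curves relative to DMSO controls.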

Structure (SMILES)	IC50
CC(=O)N/C(=C\c1ccccc1)C(=O)N1CCCc2cc(C(=O)NO)ccc2C1 [Compound 254, 2-[(2Z)-2-(acetylamino)-3-phenylprop-2-enoyl]-N-hydroxy-2,3,4,5-tetrahydro-1H-2-benzazepine-7-carboxamide]	100 to 500 nM
CC(=O)Nc1cc(NC(C)=O)cc(C(=O)N2CCCc3cc(C(=O)NO)ccc3C2)c1 [Compound 256, 2-[3,5-bis(acetylamino)benzoyl]-N-hydroxy-2,3,4,5-tetrahydro-1H-2-benzazepine-7-carboxamide]	100 to 500 nM
Cc1cc(C)c(C(=O)N2CCCc3cc(C(=O)NO)ccc3C2)c(C)c1 [Compound 259]	> 500 nM
O=C(NO)c1ccc2c(c1)CCCN(C(=O)c1cc(C(F)(F)F)cc(C(F)(F)F)c1)C2 [Compound 261]	> 500 nM

Further lines, results first:

IC50	Structure (SMILES)
< 50 nM	Cc1ccc2[nH]c(C(=O)N3CCCc4cc(C(=O)NO)ccc4C3)cc2c1 [Compound 253, N-hydroxy-2-[(5-methyl-1H-indol-2-yl)carbonyl]-2,3,4,5-tetrahydro-1H-2-benzazepine-7-carboxamide]
100 to 500 nM	O=C(NO)c1ccc2c(c1)CCCN(C(=O)c1cnc3ccccc3c1)C2 [Compound 255, N-hydroxy-2-(quinolin-3-ylcarbonyl)-2,3,4,5-tetrahydro-1H-2-benzazepine-7-carboxamide]
50 to 100 nM	O=C(NO)c1ccc2c(c1)CCCN(C(=O)c1cc3cc(Cl)ccc3o1)C2 [Compound 257, 2-[(5-chloro-1-benzofuran-2-yl)carbonyl]-N-hydroxy-2,3,4,5-tetrahydro-1H-2-benzazepine-7-carboxamide]
100 to 500 nM	O=C(NO)c1ccc2c(c1)CCCN(C(=O)c1csc3ccccc13)C2 [Compound 258, 2-(1-benzothien-3-ylcarbonyl)-N-hydroxy-2,3,4,5-tetrahydro-1H-2-benzazepine-7-carboxamide]
100 to 500 nM	O=C(NO)c1ccc2c(c1)CCCN(C(=O)c1cccs1)C2 [Compound 260, N-hydroxy-2-(2-thienylcarbonyl)-2,3,4,5-tetrahydro-1H-2-benzazepine-7-carboxamide]
